Results: patent US20040102431A1, “Substituted amino-aza-cycloalkanes useful against malaria” (priority 2000, published 2004)
Where two headings read alike, the source gives them in different places.

Molecular target: plasmepsin II (Plasmodium falciparum, UniProt P46925)
Experiment: biochemical
Details: FRET, pH 5, 37° C., 40 min, substrate 1 μM, read-out: IC50 (nM) on plasmepsin II

Chain of plasmepsin II (P46925 125-453): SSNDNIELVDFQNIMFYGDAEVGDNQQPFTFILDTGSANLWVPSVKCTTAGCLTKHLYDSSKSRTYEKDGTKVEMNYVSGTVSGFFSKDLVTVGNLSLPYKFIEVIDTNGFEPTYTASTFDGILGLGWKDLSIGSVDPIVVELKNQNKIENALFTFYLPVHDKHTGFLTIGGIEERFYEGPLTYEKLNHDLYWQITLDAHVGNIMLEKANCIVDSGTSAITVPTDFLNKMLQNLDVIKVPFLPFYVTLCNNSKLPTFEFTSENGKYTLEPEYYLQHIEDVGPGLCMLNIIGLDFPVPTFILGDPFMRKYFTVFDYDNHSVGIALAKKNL

IC50 (Additional Examples table) [nM] | Structure (SMILES) | IC50 ([…]) [nM]
209 | CCCCCc1ccc(C(=O)N(Cc2ccc(-c3ccccn3)cc2)C2CCN(Cc3ccccc3)CC2)cc1 [Example 84, N-(1-Benzylpiperidin-4-yl)-4-pentyl-N-(4-pyridin-2-yl-benzyl)benzamide] | –
248 | CCCCCc1ccc(C(=O)N(Cc2ccc3ccccc3c2)C2CCN(Cc3ccccc3)CC2)cc1 [Example 86, N-(1-Benzylpiperidin-4-yl)-N-naphthalen-2-ylmethyl-4-pentylbenzamide] | –
25 | CCCCCc1ccc(C(=O)N(Cc2ccc(-c3ccc(C#N)cc3)cc2)C2CCN(CC3=CCCCC3)CC2)cc1 [Example 40, N-(4′-Cyanobiphenyl-4-ylmethyl)-N-(1-cyclohex-1-enylmethyl-piperidin-4-yl)-4-pentylbenzamide] | –
817 | CCCCCc1ccc(C(=O)N(Cc2ccc(OCc3ccccc3)cc2)[C@@H]2CCN(Cc3ccccc3)C2)cc1 [Example 114, N-(4-Benzyloxybenzyl)-N-((3R)-1-benzylpyrrolidin-3-yl)-4-pentyl-benzamide] | –
141 | CCCCCc1ccc(C(=O)N(Cc2ccc(OCc3ccccc3)cc2)[C@H]2CCN(Cc3ccccc3)C2)cc1 [Example 75, N-(4-Benzyloxybenzyl)-N-((3S)-1-benzylpyrrolidin-3-yl)-4-pentylbenzamide] | –
46 | CCCCCc1ccc(C(=O)N(Cc2ccc(-c3cccnc3)cc2)C2CCN(CC3CCCCC3)CC2)cc1 [Example 47, N-(1-Cyclohexylmethyl-piperidin-4-yl)-4-pentyl-N-(4-pyridin-3-yl-benzyl)benzamide] | –
816 | CCCCCc1ccc(C(=O)N(Cc2ccc(-c3cccc(OC(F)(F)F)c3)cc2)C2CCN(Cc3ccccc3)CC2)cc1 [Example 113, N-(1-Benzylpiperidin-4-yl)-4-pentyl-N-(3′-trifluoromethoxy-biphenyl-4-ylmethyl)benzamide] | –
374 | CCCCC[C@H]1CC[C@H](C(=O)N(Cc2ccc(-c3ccccc3)cc2)C2CCN(Cc3ccccc3)CC2)CC1 [Example 100, trans-4-Pentylcyclohexane carboxylic acid(1-benzylpiperidin-4-yl)-biphenyl-4-ylmethyl amide] | –
153 | CCCCCc1ccc(C(=O)N(Cc2ccc(C(F)(F)F)c(F)c2)C2CCN(Cc3ccccc3)CC2)cc1 [Example 77, N-(1-Benzylpiperidin-4-yl)-N-(3-fluoro-4-trifluoromethylbenzyl)-4-pentylbenzamide] | –
270 | C=CCOc1ccc(CN(C(=O)c2ccc(CCCCC)cc2)C2CCN(Cc3ccccc3)CC2)cc1 [Example 90, N-(4-Allyloxybenzyl)-N-(1-benzylpiperidin-4-yl)-4-pentylbenzamide] | –
322 | CCCCCCc1ccc(C(=O)N(Cc2ccc(-c3ccccc3)cc2)C2CCN(Cc3ccccc3)CC2)cc1 [Example 97, N-(1-Benzylpiperidin-4-yl)-N-biphenyl-4-ylmethyl-4-hexyl-benzamide] | –
20 | CCCCCc1ccc(C(=O)N(Cc2ccc(-c3cccnc3)cc2)C2CCN(CCC(C)C)CC2)cc1 [Example 39, N-[1-(3-Methylbutyl)piperidin-4-yl]-4-pentyl-N-(4-pyridin-3-yl-benzyl)benzamide] | –
52 | CCCCCc1ccc(C(=O)N(Cc2ccc(-c3ccc4c(c3)OCO4)cc2)C2CCN(Cc3ccoc3)CC2)cc1 [Example 49, N-(4-Benzo[1,3]dioxol-5-yl-benzyl)-N-(1-furan-3-ylmethylpiperidin-4-yl)-4-pentylbenzamide] | –
– | CCCCCc1ccc(CN(Cc2ccc(-c3ccc(OCCO)cc3)cc2)C2CCN(Cc3ccccc3)CC2)cc1 [Example 33] | 96
196 | CCCCCc1ccc(C(=O)N(Cc2ccc(-c3ccccc3)cc2)C2CCN(CC3=CCCCC3)CC2)cc1 [Example 82, N-Biphenyl-4-ylmethyl-N-(1-cyclohex-1-enylmethylpiperidin-4-yl)-4-pentylbenzamide] | –
58 | CCCCCc1ccc(C(=O)N(Cc2ccc(-c3ccc4c(c3)OCO4)cc2)C2CCN(Cc3ccccc3)CC2)cc1 [Example 52, N-(4-Benzo[1,3]dioxol-5-yl-benzyl)-N-(1-benzylpiperidin-4-yl)-4-pentylbenzamide] | –
39 | CCCCCc1ccc(C(=O)N(Cc2ccc(-c3ccc(OCCO)cc3)cc2)C2CCN(Cc3ccncc3)CC2)cc1 [Example 44, N-[4′-(2-Hydroxyethoxy)-biphenyl-4-ylmethyl]-4-pentyl-N-(1-pyridin-4-ylmethylpiperidin-4-yl)benzamide] | –
294 | CCCCCc1ccc(CN(Cc2ccc(-c3ccc(C#N)cc3)cc2)C2CCN(Cc3ccccc3)CC2)cc1 [Example 95, 4′-{[(1-Benzylpiperidin-4-yl)-(4-pentylbenzyl)amino]methyl}-biphenyl-4-carbonitrile] | –
48 | CCCCCc1ccc(C(=O)N(Cc2ccc(-c3ccc(OC)c(OC)c3)cc2)C2CCN(Cc3ccccc3)CC2)cc1 [Example 48, N-(1-Benzylpiperidin-4-yl)-N-(3′,4′-dimethoxybiphenyl-4-ylmethyl)-4-pentylbenzamide] | –
882 | CCCCCc1ccc(C(=O)N(Cc2ccc(O)cc2)C2CCN(Cc3ccccc3)CC2)cc1 [Example 116, N-(1-Benzylpiperidin-4-yl)-N-(4-hydroxybenzyl)-4-pentyl-benzamide] | –

IC50 (Additional Examples table) [nM] | Structure (SMILES) | IC50 ([…]) [nM]
275 | CCCCCc1ccc(CN(Cc2ccc(-c3ccc4c(c3)OCO4)cc2)C2CCN(Cc3ccccc3)CC2)cc1 [Example 91, (4-Benzo[1,3]dioxol-5-yl-benzyl)-(1-benzylpiperidin-4-yl)-(4-pentyl-benzyl)amine] | –
– | CCCCOc1ccc(C(=O)N(Cc2ccc(OCc3ccccc3)c(OCc3ccccc3)c2)C2CCN(Cc3ccccc3)CC2)cc1 [Example 11] | 3200
634 | CCCCCc1ccc(CN(Cc2ccc(-c3cccc(C(F)(F)F)c3)cc2)C2CCN(Cc3ccccc3)CC2)cc1 [Example 108, (1-Benzylpiperidin-4-yl)-(4-pentyl-benzyl)-(3′-trifluoromethyl-biphenyl-4-ylmethyl)amine] | –
31 | CCCCCc1ccc(C(=O)N(Cc2ccc(-c3ccc(OC)c(OC)c3)cc2)C2CCN(Cc3ccoc3)CC2)cc1 [Example 43, N-(3′,4′-Dimethoxybiphenyl-4-ylmethyl)-N-(1-furan-3-ylmethylpiperidin-4-yl)-4-pentylbenzamide] | –
– | CCCCCCCCCCCC(=O)N(Cc1ccc(OCc2ccccc2)cc1)C1CCN(Cc2ccccc2)CC1 [Example 6] | 1800
458 | CCCCCc1ccc(C(=O)N(Cc2ccc(OCc3ccccc3)cc2)C2CCCN(Cc3ccccc3)C2)cc1 (racemic) [Example 105, (rac.)-N-(4-Benzyloxybenzyl)-N-(1-benzylpiperidin-3-yl)-4-pentyl-benzamide] | –
319 | CCCCCc1ccc(C(=O)N(Cc2ccc(-c3ccccc3)cc2)C2CCN(Cc3cccc(C(F)(F)F)c3)CC2)cc1 [Example 96, N-Biphenyl-4-ylmethyl-4-pentyl-N-[1-(3-trifluoromethylbenzyl)piperidin-4-yl]benzamide] | –
– | CCCCCCCCCCCC(=O)N(Cc1ccc(Oc2ccccc2)cc1)C1CCN(Cc2ccccc2)CC1 [Example 9] | 1700
618 | CCCCCc1ccc(CN(Cc2ccc(-c3cncnc3)cc2)C2CCN(Cc3ccccc3)CC2)cc1 [Example 107, (1-Benzylpiperidin-4-yl)-(4-pentyl-benzyl)-(4-pyrimidin-5-ylbenzyl)amine] | –
90 | CCCCCc1ccc(C(=O)N(Cc2ccc(-c3ccc4c(c3)OCO4)cc2)C2CCN(Cc3ccc(O)cc3)CC2)cc1 [Example 62, N-(4-Benzo[1,3]dioxol-5-yl-benzyl)-N-[1-(4-hydroxybenzyl)piperidin-4-yl]-4-pentylbenzamide] | –
81 | CCCCCc1ccc(C(=O)N(Cc2ccc(-c3ccc(C#N)cc3)cc2)C2CCN(Cc3ccccc3)CC2)cc1 [Example 59, N-(1-Benzyl-piperidin-4-yl)-N-(4′-cyano-biphenyl-4-ylmethyl)-4-pentyl-benzamide] | –
28 | CCCCCc1ccc(C(=O)N(Cc2ccc(-c3ccc(C#N)cc3)cc2)C2CCN(Cc3ccncc3)CC2)cc1 [Example 42, N-(4′-Cyano-biphenyl-4-ylmethyl)-4-pentyl-N-(1-pyridin-4-ylmethylpiperidin-4-yl)benzamide] | –
71 | CCCCCc1ccc(C(=O)N(Cc2ccc(-c3ccccc3)cc2)C2CCN(Cc3ccc(OC)cc3)CC2)cc1 [Example 56, N-Biphenyl-4-ylmethyl-N-[1-(4-methoxybenzyl)piperidin-4-yl]-4-pentylbenzamide] | –
– | CCCCOc1ccc(C(=O)N(Cc2ccc(OCc3ccccc3)cc2)C2CCN(Cc3ccccc3)CC2)cc1 [Example 3] | 1700
120 | CCCCCc1ccc(C(=O)N(Cc2ccc(-c3ccccc3Cl)cc2)C2CCN(Cc3ccccc3)CC2)cc1 [Example 68, N-(1-Benzylpiperidin-4-yl)-N-(2′-chlorobiphenyl-4-ylmethyl)-4-pentylbenzamide] | –
25 | CCCCCc1ccc(C(=O)N(Cc2ccc(-c3ccc(OC)c(OC)c3)cc2)C2CCN(Cc3ccncc3)CC2)cc1 [Example 41, N-(3′,4′-Dimethoxybiphenyl-4-ylmethyl)-4-pentyl-N-(1-pyridin-4-ylmethylpiperidin-4-yl)benzamide] | –
– | CCCCCc1ccc(C(=O)N(Cc2ccc(OCCCC)cc2)C2CCN(Cc3ccccc3)CC2)cc1 [Example 25] | 220
168 | CCCCCc1ccc(C(=O)N(Cc2ccc(-c3ccccn3)cc2)C2CCN(Cc3ccoc3)CC2)cc1 [Example 78, N-(1-Furan-3-ylmethylpiperidin-4-yl)-4-pentyl-N-(4-pyridin-2-yl-benzyl)benzamide] | –
– | CCCCCc1ccc(C(=O)N(Cc2ccc(CCCC)cc2)C2CCN(Cc3ccccc3)CC2)cc1 [Example 24] | 427
284 | CCCCCc1ccc(C(=O)N(Cc2ccc(OCC)cc2)C2CCN(Cc3ccccc3)CC2)cc1 [Example 94, N-(1-Benzylpiperidin-4-yl)-N-(4-ethoxybenzyl)-4-pentylbenzamide] | –

Structure (SMILES) | IC50 (Additional Examples table) [nM] | IC50 ([…]) [nM]
CCCCCc1ccc(C(=O)N(Cc2ccc(-c3cccnc3)cc2)C2CCN(Cc3ccc(O)cc3)CC2)cc1 [N-[1-(4-Hydroxybenzyl)piperidin-4-yl]-4-pentyl-N-(4-pyridin-3-yl-benzyl)benzamide] | 105 | –
